Laboratory results as given in patent US20030166202A1, “P450 Monooxygenases of the cyp79 family” (priority 2000, published 2003).

Columns and labels:
CYP79E1 = target: T1, CYP79E1 (Manihot esculenta, UniProt Q9M7B8); test: Substrate specificity / reconstitution of CYP79E1; assay type: biochemical, Triglochin maritima
T1 construct: A full length construct (CYP79E1na) encoding native CYP79E1 with silent mutations introduced at codons 3 and 5; made in house; host or cells: E. coli JM109 (vector pSP19g10L)
Procedure: Investigations into the substrate specificity of CYP79D1, CYP79D2, CYP79E1, CYP79E2, CYP79A2, CYP79B2, CYP79B5 and CYP79F1 are carried out in E. coli spheroplasts reconstituted with sorghum NADPH-cytochrome P450 oxidoreductase in the presence of high amounts of lipids. L-α-dioleyl phosphatidyl choline and L-α-dilauroyl phosphatidyl choline are preferred lipids for the reconstitution. […] Neither L-methionine, L-tryptophane nor L-tyrosine are metabolized by CYP79A2. Neither phenylalanine nor tyrosine are metabolized by CYP79B2. Neither L-tryptophane, L-phenylalanine nor L-tyrosine are metabolized by CYP79F1. D-Amino acids are not converted into oximes by CYP79D1, CYP79D2, CYP79E1 and CYP79E2. Depending on the nature of the substrate, substrate specificity may also be determined using intact P. pastoris cells or intact E. coli cells.
Expression levels of the different constructs are determined by CO difference spectroscopy and quantified using an extinction coefficient ε450-490 of 91 mM^−1cm^−1 (Omura et al, J. Biol. Chem. 239: 2370-2378, 1964). Spectra are made from 100 μl or 500 μl whole E. coli cells or using the rich phases from Triton X-114 phase partitioning solubilized in 50 mM KH2PO4/K2HPO4 pH 7.5, 2 mM EDTA, 20% glycerol, 0.2% Triton X-100 (total volume: 1 ml). […] In vitro activities are measured in reconstitution experiments using the rich phase from phase partitioning. […]

CYP79D1 = CYP79D1 (Manihot esculenta, UniProt Q9M7B8)
Procedure: Isolated, recombinant CYP79D1 is reconstituted and its catalytic activity determined in vitro using reaction mixtures with a total volume of 30 μl containing 2.5 pmol CYP79D1, 0.05 U NADPH P450-oxidoreductase (Benveniste et al, Biochem J 235: 365-373, 1986), 10.6 mM L-α-dioleyl phosphatidylcholine, 0.35 μCi [U-^14C]-L-amino acid (L-Val, L-Ile, L-Leu, L-Tyr or L-Phe; Amersham, Sweden), 1 mM NADPH, 0.1 M NaCl and 20 mM KPi pH 7.9. In assays containing ^14C-L-valine or ^14C-L-isoleucine, different amounts of unlabeled L- and D-amino acids (0-6 mM) are added. After incubation for 10 minutes at 30° C. the products formed are extracted into 60 μl ethyl acetate and separated on TLC sheets (Merck Kieselgel 60F254) using n-pentane/diethyl ether (50:50, v/v) or toluene/ethyl acetate (5:1, v/v) as eluents for aliphatic compounds and aromatic compounds, respectively. ^14C-labeled oximes are visualized and quantified using a STORM 840 phosphor imager (Molecular Dynamics, CA, USA). The activity of CYP79D1 is additionally measured in the presence of the inhibitors tetcyclasis, ABT and DPI under the same conditions as described above. For in vivo activity assays 200 μl P. pastoris cells are pelleted and resuspended in 100 μl 50 mM Tricine pH 7.9 and 0.35 μCi [U-^14C]-L-valine or L-isoleucine. After incubation for 30 minutes at 30° C. the cells are extracted with ethyl acetate and the products formed are analyzed as above.
CYP79D1 is reconstituted with sorghum NADPH-P450 oxidoreductase in the presence of high amounts of the lipid L-α-dioleyl phosphatidylcholine and 100 mM NaCl. […] To examine the effect of inhibitors on isolated CYP79D1, reconstitutions are performed in the presence of tetcyclasis, ABT and DPI using the same conditions as for cassava microsomes.

T1 sequence (Q9M7B8 whole entry): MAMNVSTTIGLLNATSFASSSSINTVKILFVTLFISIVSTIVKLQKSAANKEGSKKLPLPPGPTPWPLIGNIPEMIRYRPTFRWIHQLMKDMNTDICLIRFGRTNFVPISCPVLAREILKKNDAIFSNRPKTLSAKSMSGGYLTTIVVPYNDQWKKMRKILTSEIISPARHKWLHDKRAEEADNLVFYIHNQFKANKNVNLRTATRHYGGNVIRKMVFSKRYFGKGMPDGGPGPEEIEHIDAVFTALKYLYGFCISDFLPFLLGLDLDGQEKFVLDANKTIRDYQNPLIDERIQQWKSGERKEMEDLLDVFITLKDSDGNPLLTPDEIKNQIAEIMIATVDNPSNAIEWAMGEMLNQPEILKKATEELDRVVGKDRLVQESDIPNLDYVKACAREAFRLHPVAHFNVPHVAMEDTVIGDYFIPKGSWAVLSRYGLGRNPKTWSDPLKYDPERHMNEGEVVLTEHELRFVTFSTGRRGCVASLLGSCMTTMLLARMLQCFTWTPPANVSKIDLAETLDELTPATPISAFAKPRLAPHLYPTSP
Chain of CYP79D1 (Q9M7B8 2-542): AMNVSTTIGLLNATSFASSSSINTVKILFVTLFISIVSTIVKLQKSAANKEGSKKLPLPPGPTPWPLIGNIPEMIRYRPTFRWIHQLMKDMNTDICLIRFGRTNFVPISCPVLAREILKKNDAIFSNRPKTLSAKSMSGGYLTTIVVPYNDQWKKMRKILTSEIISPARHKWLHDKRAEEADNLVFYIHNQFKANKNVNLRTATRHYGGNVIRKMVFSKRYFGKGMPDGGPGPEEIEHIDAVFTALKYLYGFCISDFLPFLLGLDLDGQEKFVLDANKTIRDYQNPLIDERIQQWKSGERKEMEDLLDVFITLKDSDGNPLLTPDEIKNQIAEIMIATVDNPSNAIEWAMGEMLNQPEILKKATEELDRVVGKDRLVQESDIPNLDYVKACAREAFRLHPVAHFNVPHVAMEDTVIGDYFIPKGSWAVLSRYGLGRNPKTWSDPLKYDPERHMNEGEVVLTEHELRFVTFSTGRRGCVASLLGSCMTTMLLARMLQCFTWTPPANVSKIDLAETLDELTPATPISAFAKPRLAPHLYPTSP

N[C@@H](Cc1ccc(O)cc1)C(=O)O [L-tyrosine]
conversion to the corresponding oxime by CYP79E1 (CYP79E1): found to convert | product accumulation in reconstitution of CYP79E1 with CYP71E1 (CYP79E1; with NADPH, NADPH-cytochrome P450 oxidoreductase, CYP71E1): considerable amounts of p-hydroxyphenylacetonitrile and p-hydroxybenzaidehyde accumulate | metabolism relative to that observed with L-valine (detection level) (CYP79D1): < 0.8%
